Results as given in PMC8684776, “Discovery and characterization of potent And‐1 inhibitors for cancer treatment” (Clinical and Translational Medicine, 2021).

Assays:
[1] = system: MCF7 xenografts; assay: MCF7 xenograft in nude mice; type: in vivo, mouse
Protocol: (§1) (A) Tumours of IGROV1 xenograft treated with vehicle or CH3 (20 or 40 mg/kg/3days intraperitoneally) for 3 weeks. Ruler scale is in centimeters. (B) Growth curves of IGROV1 xenografts. Data are represented as means ± SEM. ****p < 0.0001. (C) IHC staining against acidic nucleoplasmic DNA‐binding protein 1 (And‐1) and cleaved‐caspase3 antibodies of tumor samples from 3 groups of mice. Scale bar: 50 μm. Lower panel, quantification of And‐1and cleaved‐caspase 3 IHC score in tumors treated in A. ****p < 0.0001. (D) Tumors of MCF7 xenograft treated with vehicle or CH3 (20 or 40 mg/kg/3days intraperitoneally) for 3 weeks. Ruler scale is in centimeters. (E) Growth curves of MCF7 xenografts. Data are represented as means ± SEM. ****p < 0.0001. (F) IHC staining against And‐1 and cleaved‐caspase3 antibodies of tumor samples from three treated groups of mice. Scale bar: 50 μm. Lower panel, quantification of And‐1and cleaved‐caspase 3 IHC score in tumors treated in (D). *p < 0.1; **p < 0.01; ***p < 0.001; ****p < 0.0001
(§2) into subsequent experiment groups.
(§3) represent the longest and shortest diameters, respectively. During the drug treatment, the tumor volume
(§4) and body weight were measured. […]

[2] = system: IGROV1 CR cells; assay: SRB cell viability assay, combination with cisplatin; type: cell-based, human; conditions: by combination index (CI < 1 synergism)
Protocol: (§5) The assay was as previously described.[45]
(§6) Synergy of each combination was indicated as combination index (CI) values. […] (C) Tumors of IGROV1 CR xenograft treated with control (vehicle), cisplatin (8 mg/kg/day intraperitoneally), CH3 (20 mg/kg/3days intraperitoneally), or a combination of CH3 and cisplatin for 3 weeks. Ruler scale is in centimeters. (D) Growth curves of IGROV1 CR xenografts. […] (E) IHC staining against And‐1 antibodies of tumor samples from four treated groups of mice. Scale bar: 50 μm. […] Ruler scale is in centimeters. (G) Growth curves of IGROV1 CR xenografts. […] (H) IHC staining against And‐1 antibodies of tumor samples from four treated groups of mice. Scale bar: 50 μm.

[3] = system: IGROV1 CR cells; assay: Clonogenic assay, combination with cisplatin; type: cell-based, human
Protocol: as §6

[4] = system: IGROV1 xenografts; assay: IGROV1 xenograft in nude mice; type: in vivo, mouse
Protocol: as §1, §2, §3, §4

[5] = biological target: T1, And‐1 (Homo sapiens, UniProt O75717); assay: Immunoblot of And‐1 expression in IGROV1 cells; type: cell-based; conditions: read-out: IC50, And‐1 expression
T1 construct: expressed in transfected cells
T1 sequence (O75717 1-1129): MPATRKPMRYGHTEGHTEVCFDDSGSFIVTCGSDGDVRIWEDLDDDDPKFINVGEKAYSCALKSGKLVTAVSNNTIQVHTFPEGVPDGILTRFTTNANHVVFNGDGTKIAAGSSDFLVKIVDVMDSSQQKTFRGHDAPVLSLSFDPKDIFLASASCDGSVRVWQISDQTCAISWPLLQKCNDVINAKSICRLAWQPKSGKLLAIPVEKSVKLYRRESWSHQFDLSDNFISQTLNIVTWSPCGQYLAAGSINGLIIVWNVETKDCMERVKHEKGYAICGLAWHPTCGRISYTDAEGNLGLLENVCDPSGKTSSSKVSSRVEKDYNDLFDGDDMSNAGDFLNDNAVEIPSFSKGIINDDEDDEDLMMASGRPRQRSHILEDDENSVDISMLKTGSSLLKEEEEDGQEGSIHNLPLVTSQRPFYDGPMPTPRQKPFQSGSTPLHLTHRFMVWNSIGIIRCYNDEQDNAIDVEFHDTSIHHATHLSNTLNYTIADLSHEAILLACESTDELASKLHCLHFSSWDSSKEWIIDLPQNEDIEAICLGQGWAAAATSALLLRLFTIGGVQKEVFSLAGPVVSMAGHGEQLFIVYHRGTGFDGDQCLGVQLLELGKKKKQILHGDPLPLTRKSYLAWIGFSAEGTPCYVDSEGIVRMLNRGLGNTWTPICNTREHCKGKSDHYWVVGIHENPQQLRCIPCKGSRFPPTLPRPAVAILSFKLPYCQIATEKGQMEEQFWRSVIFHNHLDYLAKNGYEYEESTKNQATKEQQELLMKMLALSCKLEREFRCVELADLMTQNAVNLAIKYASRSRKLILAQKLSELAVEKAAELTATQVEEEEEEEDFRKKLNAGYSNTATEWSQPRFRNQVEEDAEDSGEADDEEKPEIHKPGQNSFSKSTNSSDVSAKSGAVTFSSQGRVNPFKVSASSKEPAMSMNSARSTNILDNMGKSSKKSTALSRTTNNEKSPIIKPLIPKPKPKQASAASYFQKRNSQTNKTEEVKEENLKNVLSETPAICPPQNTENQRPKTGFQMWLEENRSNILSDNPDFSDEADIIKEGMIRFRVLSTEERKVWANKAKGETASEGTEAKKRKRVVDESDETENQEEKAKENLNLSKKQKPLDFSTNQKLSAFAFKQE
Source text: as §5
To evaluate whether And‐1 is required for tumor survival, we examined the dependence of a broad range of tumor cells on And‐1 by using dependency score analysis from DepMap (https://depmap.org/portal/). […] To identify And‐1 specific pharmacologic inhibitor, we established an HTS assay to identify small molecules that can inhibit And‐1 by inducing its degradation. To this end, we first established two stable cell lines, HEK293T‐And‐1‐Luc expressing And‐1 protein fused to a luciferase reporter gene, and HEK293T‐Luc expressing luciferase only (Figure 1B). HEK293T‐And‐1‐Luc cells allow us to monitor And‐1 protein levels by measuring luciferase activity in a high‐throughput manner. Using these cell lines, we conducted a screening for And‐1 inhibitors against a LOPAC small molecule library by using a quantitative HTS (qHTS) as we described previously.[46]
(A) Dependency score of WDHD1/And‐1 analyzed by DepMap. […] (B) Establishment of HEK293T‐And‐1‐Luc and HEK293T‐Luc cells for the high‐throughput screen (HTS). (C) Schematic diagram of quantitative HTS (qHTS) for And‐1 inhibitors. (D) Immunoblot analyses to detect And‐1 expression in IGROV1 cells treated with resveratrol at indicated concentrations. (E) Chemical structures of resveratrol and its three analogs as indicated. (F) Left, immunoblot analyses to detect And‐1 expression in IGROV1 cells treated with And‐1 inhibitors at the indicated concentration. Right, quantification of And‐1 expression shown in the left panel.

OB1OCc2cc(/C=C/c3ccc(Cl)c(Cl)c3)ccc21 [CH3, (E)‐5‐(3,4‐dichlorostyryl)benzo[c][1,2]oxaborol‐1(3H)‐ol]
And‐1 expression in tumor tissues (IHC) ([1]; MCF7 xenograft tumors): inhibited And‐1 expression | cleaved caspase‐3 expression in tumor tissues (IHC) ([1]; MCF7 xenograft tumors): induced the expression of cleaved caspase‐3 | tumor growth ([1]; breast MCF7 xenografts, nude mice, 20 mg/kg or 40 mg/kg intraperitoneal, 3 weeks): significantly reduced tumor growth | synergy with cisplatin to inhibit cell proliferation [2]: significant synergy with cisplatin | synergy with cisplatin to reduce clonogenic capacity [3]: great synergy with cisplatin | And‐1 expression in tumor tissues (IHC) ([4]; IGROV1 xenograft tumors): inhibited And‐1 expression | cleaved caspase‐3 expression in tumor tissues (IHC) ([4]; IGROV1 xenograft tumors): induced the expression of cleaved caspase‐3 | tumor growth ([4]; ovarian IGROV1 xenografts, nude mice, 20 mg/kg or 40 mg/kg intraperitoneal, 3 weeks): significantly reduced tumor growth | DC50 [5]: 2.08 µM
